Patent US8022235B2, “Compositions of phospholipid ether boronic acids and esters and methods for their synthesis and use” (Cellectar, Inc., priority 2007, dated 2011)
“Also recorded” adds a separate entry of the source.

What was measured:
[1] = test system: Adrenal H-295; assay: Imaging and tissue distribution, tumor model; assay type: in vivo, SCID Mouse; conditions: Adenocarcinoma
[2] = test system: Ovarian HTB-77; assay: Imaging and tissue distribution, tumor model; assay type: in vivo, Nude Mouse; conditions: Adenocarcinoma
[3] = test system: spontaneous murine lung tumors; assay: Bioscan imaging of spontaneous lung tumor; assay type: in vivo, ApcMin mouse; conditions: 125I-NM404, image 4 days post injection, 2 mm tumor
[4] = test system: animal tumor models; assay: Imaging and biodistribution across animal tumor models (general statements)
Description: See, for example, U.S. patent application Ser. Nos. 10/906,687, 11/177,740, 11/316,620 and 11/382,645. Due to deficiencies in metabolic phospholipase enzymes in the membranes of malignant tumor cells, the prevailing hypothesis for this specificity is that phospholipid ether analogs become trapped exclusively in tumor cell membranes because of their inability to become metabolized and eliminated by the cancerous cell. Thus, the differential clearance rates of phospholipid ethers from normal cells versus neoplastic tumor cells are responsible for this specificity.
The reason for the retention of PLE and analogs in cancer cells remains unknown. Without being held to any particular theory, however, the prevailing hypothesis, is that radioiodinated PLE and APC analogs become trapped in tumor cell membranes because of their inability to be metabolized and eliminated. On the other hand, such lipid molecules are metabolized and cleared by normal tissues, including the liver.
These PLE analogs are specifically designed to incorporate aromatic radioiodine in order to render the molecule stable towards in vivo deiodination.

[5] = test system: Retinoblastoma; assay: Imaging and tissue distribution, tumor model; assay type: in vivo, Spontaneous Mouse; conditions: Blastoma
[6] = test system: Pancreatic c-myc and kras; assay: Imaging and tissue distribution, tumor model; assay type: in vivo, Spontaneous mice; conditions: Adenocarcinoma
Description: (§1) Imaging and tissue distribution studies performed in mouse models aimed at determining the uptake characteristics in a wide variety of tumor models are summarized in Table 1, below.

[7] = test system: Melanoma A-375; assay: Imaging and tissue distribution, tumor model; assay type: in vivo, Nude Mouse; conditions: Adenocarcinoma
[8] = test system: Walker-256 carcinosarcoma; assay: Tissue distribution of radioactivity in Walker-256 carcinosarcoma model; assay type: in vivo, rats
Procedure: The avidity of PLE and APC analogs to localize in tumors was evaluated in several animal models. The PC-3 model represents a human tumor cell line that was used to determine the target (tumor) to non-target ratio of NM404 and NM412 in head to head comparison in order to select a candidate for an initial human pharmacokinetic trial in prostate cancer patients. The MatLyLu (Dunning R3327 rat) model, a rat prostate tumor line, was used specifically to screen 9 specific analogs prior to entering them into control for dosimetry and tumor-bearing animals for determining tumor/background ratios. Finally, the Walker-256 carcinosarcoma model was used for quantitative tissue distribution purposes.
In order to expedite the screening process and minimize the number of tumor bearing animals utilized in multiple time point tissue distribution studies, new radioiodinated homologs were imaged by gamma camera scintigraphy in the rat Dunning […] (MAT LyLu strain) prostate cancer model. Thus, male Copenhagen rats received a subcutaneous injection of MAT LyLu cells (1×10^6 cells) in the thigh 10-14 days prior to injection of the radioiodinated PLE analogs (30-40 μCi) in 2% Tween-20 solution. Gamma camera images were obtained at multiple time points including 24 and 48 hours post injection. […] Tissue distribution of radioactivity in rats bearing Walker-256 carcinosarcoma was assessed at various time intervals following intravenous administration of the radioiodinated chain length homologs. The first group of compounds that was tested included three alkylphosphocholines: a shorter chain analog with seven carbons NM396 and two analogs with a longer chain length, 13 (NM397, C15 alkyl chain length) and 1 (NM404, C18 alkyl chain length).

[9] = test system: human PC-3 prostate tumor xenografts; assay: Scintigraphy, microPET and tissue distribution in PC-3 tumor model; assay type: in vivo, SCID mice; conditions: metastatic prostate tumor model, scintigraphy, FIG. 9
[10] = test system: animal tumor models; conditions: radioiodinated analogs, xenograft and spontaneous tumor rodent models, previous reports; cited from earlier work
[11] = test system: Subcutaneous CT-26; assay: Imaging and tissue distribution, tumor model; assay type: in vivo, Mouse xenograft; conditions: Colorectal adenocarcinoma
Description: as §1

With `C[N+](C)(C)CCOP(=O)([O-])OCCCCCCCCCCCCCCCCCCc1ccc(I)cc1` [NM404, 18-(p-iodophenyl)-octadecyl phosphocholine] the Uptake [1] was “Yes”, the Uptake [2] was “Yes” and the “uptake / retention in tumor” value [3] was “retained in spontaneous murine lung tumors; also recorded: intense uptake”. For the same compound, the “tumor concentrations over time” value ([4]; following administration) was “almost stable for many weeks”, the “elimination from normal tissue” value ([4]; in vivo) was “eliminated from normal tissue within a few days” and the tumor retention ([4]; over 27 animal tumor models, every model and tumor type studied) was “tumor-selective retention”. For the same compound, the tumor selectivity ([4]; radioiodinated, 37 of 37 models investigated) was “remarkable tumor selectivity”, the “uptake into the tumor tissue” value ([4]; up to) was 10-25 % of the injected dose and the Uptake [5] was “Yes”. For the same compound, the Uptake [6] was “Yes”, the Uptake [7] was “Yes” and the “peak radioactivity in the tumor” value ([8]; 48 hours after administration) was 1.14±0.01 % of ID/g. The blood levels ([8]; 120 hours) was 0.6±0.1 % of ID/g, the Uptake ([8]; Carcinosarcoma) was “Yes” and the “time of peak radioactivity in the tumor” value ([8]; after intravenous administration) was 48 h. The “total radioactivity levels in the thyroid” value ([8]; considering the small mass of the gland) was “relatively low”, the “radioactivity in liver, kidney and duodenum compared with C15 analog 13” value ([8]; rat, in vivo) was “significantly lower” and the “localization in lymph node metastases” value [9] was “localize in lymph node metastases”. The “selective retention by tumors” value [10] was “selectively retained by a variety of human and animal tumors” and the Uptake [11] was “Yes”.
